From patent US20060084134A1, “Direct ethanol metabolite ethyl sulfate as an useful diagnostic and therapeutic marker of alcohol consumption” (priority 2004, published 2006)
Structures can show the parent of a compound that is named as a salt. Where two headings read alike, the source gives them in different places. Blank lines part the entries; values can stand above or below the compound they belong to.

Assays:
[1] = cited from earlier work
[2] = cited from earlier work; remark: listed apart in the source
[3] = human, in vivo
Experimental: (§1) Characteristic tandem-mass spectrometric fragmention of EtS, purchased from ABCR Karlsruhe/Germany, was obtained when analyzing EtS solution in product ion scan mode: deprotonated molecule (M-H)^−, m/z 125 and fragment ions m/z 80 and 97. An LC-MS/MS-method, which has previously been published for the determination of EtG (Weinmann 2004), was modified by inclusion of the transitions for EtS. Subsequent LC/MS/MS-analysis was performed in MRM-mode (m/z 125 to m/z 97 and m/z 80 and by monitoring the unfragmented precursor ion (m/z 125) of EtS (ion chromatograms of diluted reference solution see FIG. 1). A gradient elution with increasing acetonitrile concentration of the eluting solvent was used—all other chromatographic equipment was as described in the article by Weinmann et al. (Weinmann 2004).
(§2) Sample preparation was done by addition of D5-EtG and dilution of the urine sample prior to injection in the LC-MS/MS system. Quantification was performed using D5-EtG as internal standard.

[4] = Controlled drinking experiment with a healthy volunteer: urinary excretion profile by LC-MS/MS; conditions: for UAC (urine alcohol concentration): 540 ml wine, 49 g ethanol
Experimental: as §1, §2

Compound: CCO[C@@H]1O[C@H](C(=O)O)[C@@H](O)[C@H](O)[C@H]1O [EtG, ethyl glucuronide]
water solubility (in words) [1]: water-soluble
time detectable following complete elimination of alcohol from the body ([2]; dose-dependently, after even minor amounts of alcohol like 10 grams): 4 days
time detectable in hair [2]: months
time detectable in urine after cessation of ethanol intake ([2]; urine): up to 5 days
detection in urine at the last time point [3]: positive

Compound: fatty acid ethyl esters [FAEEs]
stability in blood samples (in words) ([1]; blood samples, continued enzyme activity): not stable
time detectable in hair [2]: several months
time detectable in hair ([2]; listed as FAEE): months
time detectable in serum and erythrocytes after drinking ([2]; serum and erythrocytes): up to 24 h
time detectable in serum after cessation of ethanol intake ([2]; serum): up to 24 h

Compound: phosphatidylethanol [PEth]
time detectable in whole blood after cessation of ethanol intake ([2]; whole blood): > 2 weeks

More lines, now with the values ahead:

time since which urinary ethanol (UAC) had not been detectable ([4]; counted back from the 36 hours time point): 23 h
UAC (urine alcohol concentration) ([4]; 0 h:min after ethanol uptake): 0.003 g %
UAC (urine alcohol concentration) ([4]; 1:00 h:min after ethanol uptake): 0.022 g %
UAC (urine alcohol concentration) ([4]; 2:06 h:min after ethanol uptake): 0.078 g %
UAC (urine alcohol concentration) ([4]; 2:46 h:min after ethanol uptake): 0.082 g %
UAC (urine alcohol concentration) ([4]; 8:00 h:min after ethanol uptake): 0.046 g %
UAC (urine alcohol concentration) ([4]; 11:20 h:min after ethanol uptake): 0.003 g %
UAC (urine alcohol concentration) ([4]; 13:20 h:min after ethanol uptake): 0 g %
UAC (urine alcohol concentration) ([4]; 14:50 h:min after ethanol uptake): 0 g %
UAC (urine alcohol concentration) ([4]; 16:40 h:min after ethanol uptake): 0 g %
UAC (urine alcohol concentration) ([4]; 19:10 h:min after ethanol uptake): 0 g %
UAC (urine alcohol concentration) ([4]; 21:30 h:min after ethanol uptake): 0 g %
UAC (urine alcohol concentration) ([4]; 26:30 h:min after ethanol uptake): 0 g %
UAC (urine alcohol concentration) ([4]; 32:00 h:min after ethanol uptake): 0 g %
UAC (urine alcohol concentration) ([4]; 36:00 h:min after ethanol uptake): 0 g %
Compound: CCO [ethanol]

time detectable in urine [3]: up to 36 hours
Compound: CCOS(=O)(=O)O [EtS, ethyl sulfate]
